Reference: paper PMC7279046, “Discovery of the Novel Inhibitor Against New Delhi Metallo-β-Lactamase Based on Virtual Screening and Molecular Modelling” (International Journal of Molecular Sciences, 2020)
“Also recorded” adds a separate entry of the source. Where two headings read alike, the source gives them in different places.

Legend:
[1] = system: E. coli BL21 (pET28a-SP-NDM-1); assay: antibacterial activity assay (MIC, broth microdilution; FICI); format: cell-based; details: for MIC: Escherichia coli; for FICI: FICI ≤ 0.5 denotes synergy
[2] = biological target: T1, NDM-1 (Klebsiella pneumoniae, UniProt C7C422); assay: nitrocefin assay (hydrolysis by purified NDM-1); format: biochemical
T1 construct: made in house; host or cells: E. coli BL21 (DE3)
T1 sequence (C7C422 29-270 limits assumed): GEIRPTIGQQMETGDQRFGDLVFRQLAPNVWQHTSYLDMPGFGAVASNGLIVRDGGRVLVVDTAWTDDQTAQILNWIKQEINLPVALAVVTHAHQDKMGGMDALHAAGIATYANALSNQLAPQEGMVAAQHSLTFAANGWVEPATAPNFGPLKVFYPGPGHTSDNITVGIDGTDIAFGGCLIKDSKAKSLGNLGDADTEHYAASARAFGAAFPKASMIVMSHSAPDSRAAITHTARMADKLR
Experimental: The inhibitory activities of 18 compounds against NDM-1 were tested by nitrocefin assay. The purified NDM-1 was incubated with drugs and nitrocefin, then the absorbance values of OD492nm were determined as the nitrocefin hydrolysis. […]
collected for the subsequent protein purification as described by Liu et.al. […]
further determination of the inhibitory effect of ZINC05683641 on the hydrolysis activities of NDM-1. The initial identifying of NDM-1 inhibitory activities was carried out on the […]
serves as an indicator whose colour changes from yellow to red with increased hydrolysis.
(§1) NDM-1 were incubated with various concentrations of inhibitor (0, 4, 8, 16, 32, 64 μg/mL) in phosphate buffer (pH = 7.4) at room temperature for 20 minutes, and then, 25 μL of nitrocefin was added to the mixture. After 10 minutes of incubation, the samples were read at OD492nm to determine the level of nitrocefin hydrolysis. […]

[3] = biological target: T2, H250A-NDM-1 (Klebsiella pneumoniae, UniProt C7C422, H250A); assay: fluorescence-quenching assay, H250A; format: binding
T2 sequence (C7C422 29-270 H250A): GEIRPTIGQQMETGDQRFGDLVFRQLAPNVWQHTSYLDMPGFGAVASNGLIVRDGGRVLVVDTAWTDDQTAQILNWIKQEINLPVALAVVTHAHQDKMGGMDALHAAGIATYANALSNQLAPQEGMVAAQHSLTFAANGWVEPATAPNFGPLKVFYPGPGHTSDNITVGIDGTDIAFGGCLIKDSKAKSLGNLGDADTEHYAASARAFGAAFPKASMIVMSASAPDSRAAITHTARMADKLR
Experimental: (§2) Furthermore, this competitive inhibition mechanism was verified by fluorescence quenching method. In previous literature, fluorescence quenching method are extensively used in the interaction mechanism research between ligand and protein. The binding constants of NDM-1 with ZINC05683641 were measured by fluorescence quenching method in this research. […] It is believed that the 3D structure of NDM-1-ZINC05683641 complex is reliable by MD simulation, and residues of ILE-35, MET-67, VAL-73, TRP-93, CYS-208, ASN-220 and HIS-250 played crucial roles in the binding of ZINC05683641 to NDM-1. […]
(§3) Fluorescence-quenching assay
(§4) According to Dong et al., Niu et al. and Qiu et al., the binding constants (KA) of WT-NDM-1 and two mutants NDM-1 with inhibitor were measured using the fluorescence-quenching […]
(§5) Site-Directed Mutagenesis
(§6) The recombinant plasmid pET28a-NDM-1 was constructed according to previous reports encoding WT-NDM-1. Plasmids encoding W93A-NDM-1 or H250A-NDM-1 were constructed by using a QuikChange site-directed mutagenesis kit. The template plasmid was the pET28a-NDM-1 plasmid, as noted above.
(§7) Expression and puriﬁcation of WT-PLY and mutants
(§8) Plasmids harboring the coding sequences for WT-NDM-1, W93A-NDM-1, and H250A-NDM-1 were transformed into E. coli BL21 (DE3). […]

[4] = biological target: T2, H250A-NDM-1; assay: nitrocefin assay with mutant H250A; format: biochemical; details: 4-64 μg/mL
Experimental: (§9) Subsequently, the inhibitory activity of ZINC05683641 against mutants was tested by the nitrocefin assays. […] The findings indicate that due to the mutation of residues in the binding sites, the binding affinity of ZINC05683641 with NDM-1 decreased, leading to a loss of inhibitory activity. […]
as §5, §6, §7
(§10) Plasmids harboring the coding sequences for WT-NDM-1, W93A-NDM-1, and H250A-NDM-1 were transformed into E. coli BL21 (DE3). The E. coli strain was cultured in 1,000 mL of LB broth supplemented with 50 μg mL–1 kanamycin until the OD 600 nm of the cultures reached 0.6–0.8.
(§11) Protein expression was induced by using 0.3 mM IPTG for 12 h at 16 °C. The cells were harvested and washed once with sterile PBS. […]
as §1

[5] = biological target: T3, W93A-NDM-1 (Klebsiella pneumoniae, UniProt C7C422, W93A); assay: nitrocefin assay with mutant W93A; format: biochemical; details: 4-64 μg/mL
T3 sequence (C7C422 29-270 W93A): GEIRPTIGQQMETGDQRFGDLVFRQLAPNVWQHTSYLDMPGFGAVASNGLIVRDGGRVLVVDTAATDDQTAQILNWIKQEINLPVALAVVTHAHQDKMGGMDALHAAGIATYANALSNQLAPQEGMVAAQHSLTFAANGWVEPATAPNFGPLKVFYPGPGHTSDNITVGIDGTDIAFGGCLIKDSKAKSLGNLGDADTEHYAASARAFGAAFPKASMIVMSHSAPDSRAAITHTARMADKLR
Experimental: as §9, §5, §6, §7, §10, §11, §1

[6] = biological target: T4, WT-NDM-1 (Klebsiella pneumoniae, UniProt C7C422); assay: fluorescence-quenching assay, WT; format: binding
T4 construct: made in house; host or cells: E. coli BL21 (DE3)
T4 sequence (C7C422 29-270 limits assumed): as the sequence (C7C422 29-270 limits assumed) above
Experimental: as §2, §3, §4, §5, §6, §7, §8

[7] = biological target: T3, W93A-NDM-1; assay: fluorescence-quenching assay, W93A; format: binding
Experimental: as §2, §3, §4, §5, §6, §7, §8

[8] = biological target: T1, NDM-1; details: cited from earlier work
[9] = IC50, nitrocefin hydrolysis, OD492nm, mean ± SD, n = 3
[10] = IC50 (not available; inhibitory activity at 1 mM), initial test at a concentration of 1 mM

Compound: C[C@@H](O)[C@H]1C(=O)N2C(C(=O)O)=C(S[C@@H]3CN[C@H](C(=O)N(C)C)C3)[C@H](C)[C@H]12 [Meropenem]
- MIC of meropenem in combination ([1]; +64 μg/mL ZINC05683641): 8 µg/mL
- MIC of meropenem in combination ([1]; +128 μg/mL ZINC05683641): 8 µg/mL
- MIC [1]: 32 µg/mL
- reduction of the MICs of meropenem ([1]; addition of ZINC05683641 at 64 and 128 μg/mL): fourfold
- FICI ([1]; meropenem +64 μg/mL ZINC05683641): 0.375
- FICI ([1]; meropenem +128 μg/mL ZINC05683641): 0.50
- FICI ([1]; meropenem +128 μg/mL ZINC05683641, listed as meropenem): 0.500

Compound: Cc1ccc(N2C(=O)c3ccc(C(=O)c4ccc5c(c4)C(=O)N(c4ccc(C)cc4C)C5=O)cc3C2=O)c(C)c1 [ZINC00639379]
- IC50 [2, 9]: 207 ± 15.5 µM

Compound: O=c1oc2cc(OCc3ccc(Cl)c(Cl)c3)ccc2cc1-c1nc2ccccc2s1 [ZINC01799114]
- IC50 [2, 9]: > 300 µM

Compound: Cc1ccc(N2C(=O)c3ccc(C(=O)c4ccc5c(c4)C(=O)N(c4ccc(C)cc4C)C5=O)cc3C2=O)c(C)c1 [ZINC02079077]
- IC50 [2, 9]: 108 ± 5.64 µM

Compound: Cc1ccc(-c2cc(C(=O)Oc3ccc([N+](=O)[O-])cc3)c3cc(C)ccc3n2)cc1 [ZINC02577071]
- IC50 [2, 9]: > 300 µM

Compound: Cc1ccc(S(=O)(=O)ON2C(=O)c3cccc4cccc(c34)C2=O)cc1 [ZINC02938448]
- IC50 [2, 9]: > 300 µM

Compound: O=C1c2cccc3cccc(c23)C(=O)N1OS(=O)(=O)c1ccc(Cl)cc1 [ZINC02953923]
- IC50 [2, 9]: > 300 µM

Compound: Cc1ccc(S(=O)(=O)Nc2cccc3cccc(NS(=O)(=O)c4ccc(C)cc4)c23)cc1 [ZINC03198432]
- IC50 [2, 9]: > 300 µM

Compound: O=C(N[C@@H](Cc1ccc2ccccc2c1)C(=O)O)OCC1c2ccccc2-c2ccccc21 [ZINC04218138]
- IC50 [2, 10]: > 1000 µM

Compound: COc1ccc2c3c(cccc13)C(=O)N(OS(=O)(=O)c1ccc(C)cc1)C2=O [ZINC05683641]
- MIC [1]: > 512 µg/mL
- inhibition of cell growth ([1]; inhibitor alone, 512 μg/mL): did not inhibit cell growth
- IC50 [2, 9]: 13.6 ± 0.52 µM
- hydrolysis activity of nitrocefin by WT-NDM-1 ([2]; final concentrations of 4, 8, 16, 32 and 64 μg/mL): reduced
- inhibition at 16 µM ([2]; read-out: inhibition rate): > 50%
- Kd [3]: 4.65 µM
- binding constant KA ([3]; H250A, fluorescence spectroscopy quenching, mean ± SD, n = 3): 2.15 ± 0.88 1 × 10^5 L mol^−1
- inhibition of H250A hydrolysis activity [4]: almost no inhibition; also recorded: did not lead to inhibitory effects
- inhibition of W93A hydrolysis activity [5]: almost no inhibition; also recorded: did not lead to inhibitory effects
- Kd [6]: 2.4 µM
- Kd [7]: 3.28 µM
- binding constant KA ([7]; W93A, fluorescence spectroscopy quenching, mean ± SD, n = 3): 3.05 ± 0.83 1 × 10^5 L mol^−1

Compound: C[C@H]1CCc2cc(F)cc3c(=O)c(C(=O)NCc4ccccc4Cl)c(O)n1c23 [ZINC06166781]
- IC50 [2, 9]: > 300 µM

Compound: Cc1ccc(-c2cc(C(F)(F)F)c3c(N)c(C(=O)c4ccccc4)sc3n2)cc1 [ZINC06421319]
- IC50 [2, 10]: > 1000 µM

Compound: Cc1ccc(S(=O)(=O)N[C@@H](C(=O)Oc2ccc3c4c(c(=O)oc3c2)CCCC4)c2ccccc2)cc1 [ZINC11865709]
- IC50 [2, 9]: > 300 µM

Compound: O=[N+]([O-])c1cccc(S(=O)(=O)N2CN(c3ccc4ccccc4c3)c3nc4ccccc4nc32)c1 [ZINC12524283]
- IC50 [2, 9]: > 300 µM

Compound: O=C1C(=Cc2cccc(Cl)c2)CN(Cc2ccccc2)CC1=Cc1cccc(Cl)c1 [ZINC20115378]
- IC50 [2, 9]: > 300 µM

Compound: Cc1ccccc1S(=O)(=O)ON1C(=O)c2cccc3cc(S(=O)(=O)N(C)C)cc(c23)C1=O [ZINC25558269]
- IC50 [2, 10]: > 1000 µM

Compound: O=C1c2cccc3c(Br)ccc(c23)C(=O)N1OS(=O)(=O)c1ccc(Cl)cc1 [ZINC25558273]
- IC50 [2, 9]: > 300 µM

Compound: Cc1ccc(C2=NN3[C@@H](C(=O)c4ccc(-c5ccccc5)cc4)Oc4ccc(Cl)cc4[C@H]3C2)cc1 [ZINC25558691]
- IC50 [2, 10]: > 1000 µM

Compound: N[C@H](CN[C@H](CN[C@@H](CC(=O)O)C(=O)O)C(=O)O)C(=O)O [aspergillomarasmine A]
- IC50 [8]: 4 µM
